Read-outs that look alike come from different tables or passages of the source.
Assay: Phase I study CXR1002-001: plasma pharmacokinetics (LC-MS/MS)
Type: in vivo, human
Conditions: human, plasma, plasma; for concentration at 336 hr: 336 hr (Day 15)
From the text: PK samples, PD (fasting) samples, blood glucose, and blood triglyceride samples, were taken over a 6-week period.
Dose limiting toxicity (DLT) will be based on the toxicity assessments over the first 3-week period of the repeat dosing schedule. PK samples (single blood sample) were taken on the following basis: • Every 6 weeks during the repeat dosing phase • If dosing is interrupted or stopped, samples will be taken at intervals according to patient convenience • PK sampling for safety evaluation may take place at any time, as clinically indicated
Plasma samples were collected after the single 50 mg dose at the following timepoints: Pre-dose, and then 0.25, 0.5, 0.75, 1, 1.5, 2, 3, 4, 6, 24, 48, and 72 hours after administration and then once weekly at weeks 2, 3, 4, 5, and 6 (days 8, 15, 22, 29, and 36). For patients treated with the weekly repeat dose, plasma samples were collected at the following timepoints: Pre-dose and then 2, 3, 4 and 24 hours after administration for a total of 6 weeks. Thereafter a single sample was collected every 6 weeks for monitoring of exposure during long term treatment. Plasma samples were processed at site and stored at −80° C. prior to batch shipment to the analytical laboratory.

**Q.** Which results are given for `O=C(O)C(F)(F)C(F)(F)C(F)(F)C(F)(F)C(F)(F)C(F)(F)C(F)(F)F` [CXR1002]?
**A.** concentration at 4 hr (oral, 1200 mg, Patient 034, 1200 mg, person, 4 hr, read-out: Concentration): 560 µM; concentration at 24 hr (oral, 1200 mg, Patient 034, 1200 mg, person, 24 hr (Day 2), read-out: Concentration): 409 µM; concentration at 168 hr (oral, 1200 mg, Patient 034, 1200 mg, person, 168 hr (Day 8), read-out: Concentration): 351 µM; concentration at 170 hr (oral, 1200 mg, Patient 034, 1200 mg, person, 170 hr, read-out: Concentration): 893 µM; concentration at 171 hr (oral, 1200 mg, Patient 034, 1200 mg, person, 171 hr, read-out: Concentration): 771 µM; concentration at 172 hr (oral, 1200 mg, Patient 034, 1200 mg, person, 172 hr, read-out: Concentration): 730 µM; concentration at 192 hr (oral, 1200 mg, Patient 034, 1200 mg, person, 192 hr (Day 9), read-out: Concentration): 722 µM; concentration at 336 hr (oral, 1200 mg, Patient 034, 1200 mg, person, read-out: Concentration): 644 µM; concentration at 338 hr (oral, 1200 mg, Patient 034, 1200 mg, person, 338 hr, read-out: Concentration): 1030 µM; concentration at 339 hr (oral, 1200 mg, Patient 034, 1200 mg, person, 339 hr, read-out: Concentration): 1120 µM; concentration at 340 hr (oral, 1200 mg, Patient 034, 1200 mg, person, 340 hr, read-out: Concentration): 955 µM; concentration at 360 hr (oral, 1200 mg, Patient 034, 1200 mg, person, 360 hr (Day 16), read-out: Concentration): 1020 µM; concentration at 504 hr (oral, 1200 mg, Patient 034, 1200 mg, person, 504 hr (Day 22), read-out: Concentration): 924 µM; concentration at 506 hr (oral, 1200 mg, Patient 034, 1200 mg, person, 506 hr, read-out: Concentration): 1350 µM; concentration at 507 hr (oral, 1200 mg, Patient 034, 1200 mg, person, 507 hr, read-out: Concentration): 1220 µM; concentration at 508 hr (oral, 1200 mg, Patient 034, 1200 mg, person, 508 hr, read-out: Concentration): 1440 µM; concentration at 528 hr (oral, 1200 mg, Patient 034, 1200 mg, person, 528 hr (Day 23), read-out: Concentration): 1360 µM; concentration at 672 hr (oral, 1200 mg, Patient 034, 1200 mg, person, 672 hr (Day 29), read-out: Concentration): 1080 µM; concentration at 674 hr (oral, 1200 mg, Patient 034, 1200 mg, person, 674 hr, read-out: Concentration): 1310 µM; concentration at 675 hr (oral, 1200 mg, Patient 034, 1200 mg, person, 675 hr, read-out: Concentration): 1450 µM; concentration at 676 hr (oral, 1200 mg, Patient 034, 1200 mg, person, 676 hr, read-out: Concentration): 1380 µM; concentration at 696 hr (oral, 1200 mg, Patient 034, 1200 mg, person, 696 hr (Day 30), read-out: Concentration): 1310 µM; concentration at 2 hr (oral, 1200 mg, Patient 035, 1200 mg, person, 2 hr, read-out: Concentration): 298 µM; concentration at 3 hr (oral, 1200 mg, Patient 035, 1200 mg, person, 3 hr, read-out: Concentration): 196 µM; concentration at 4 hr (oral, 1200 mg, Patient 035, 1200 mg, person, 4 hr, read-out: Concentration): 317 µM; concentration at 24 hr (oral, 1200 mg, Patient 035, 1200 mg, person, 24 hr (Day 2), read-out: Concentration): 261 µM; concentration at 168 h (oral, 1200 mg, Patient 035, 1200 mg, person, 168 hr (Day 8), read-out: Concentration): 254 µM; concentration at 170 h (oral, 1200 mg, Patient 035, 1200 mg, person, 170 hr, read-out: Concentration): 460 µM; concentration at 171 h (oral, 1200 mg, Patient 035, 1200 mg, person, 171 hr, read-out: Concentration): 479 µM; concentration at 172 h (oral, 1200 mg, Patient 035, 1200 mg, person, 172 hr, read-out: Concentration): 592 µM; concentration at 192 h (oral, 1200 mg, Patient 035, 1200 mg, person, 192 hr (Day 9), read-out: Concentration): 543 µM; concentration at 336 hr (oral, 1200 mg, Patient 035, 1200 mg, person, read-out: Concentration): 476 µM; concentration at 338 hr (oral, 1200 mg, Patient 035, 1200 mg, person, 338 hr, read-out: Concentration): 570 µM; concentration at 339 hr (oral, 1200 mg, Patient 035, 1200 mg, person, 339 hr, read-out: Concentration): 621 µM; concentration at 340 hr (oral, 1200 mg, Patient 035, 1200 mg, person, 340 hr, read-out: Concentration): 649 µM; concentration at 360 h (oral, 1200 mg, Patient 035, 1200 mg, person, 360 hr (Day 16), read-out: Concentration): 704 µM; concentration at 504 h (oral, 1200 mg, Patient 035, 1200 mg, person, 504 hr (Day 22), read-out: Concentration): 600 µM; concentration at 506 h (oral, 1200 mg, Patient 035, 1200 mg, person, 506 hr, read-out: Concentration): 774 µM; concentration at 507 h (oral, 1200 mg, Patient 035, 1200 mg, person, 507 hr, read-out: Concentration): 925 µM; concentration at 508 h (oral, 1200 mg, Patient 035, 1200 mg, person, 508 hr, read-out: Concentration): 1020 µM; concentration at 2 hr (po, 1000 mg, Patient 041, 1000 mg weekly oral dose, Time 2 hr, read-out: Concentration (plasma level)): 223 µM; concentration at 3 hr (po, 1000 mg, Patient 041, 1000 mg weekly oral dose, Time 3 hr, read-out: Concentration (plasma level)): 233 µM; concentration at 4 hr (po, 1000 mg, Patient 041, 1000 mg weekly oral dose, Time 4 hr, read-out: Concentration (plasma level)): 207 µM; concentration at 24 hr (po, 1000 mg, Patient 041, 1000 mg weekly oral dose, Time 24 hr (Day 2), read-out: Concentration (plasma level)): 175 µM; concentration at 168 hr (po, 1000 mg, Patient 041, 1000 mg weekly oral dose, Time 168 hr (Day 8), read-out: Concentration (plasma level)): 171 µM; concentration at 170 hr (po, 1000 mg, Patient 041, 1000 mg weekly oral dose, Time 170 hr, read-out: Concentration (plasma level)): 342 µM; concentration at 171 hr (po, 1000 mg, Patient 041, 1000 mg weekly oral dose, Time 171 hr, read-out: Concentration (plasma level)): 413 µM; concentration at 172 hr (po, 1000 mg, Patient 041, 1000 mg weekly oral dose, Time 172 hr, read-out: Concentration (plasma level)): 357 µM; concentration at 192 hr (po, 1000 mg, Patient 041, 1000 mg weekly oral dose, Time 192 hr (Day 9), read-out: Concentration (plasma level)): 396 µM; concentration at 336 h (po, 1000 mg, Patient 041, 1000 mg weekly oral dose, Time 336 hr (Day 15), read-out: Concentration (plasma level)): 294 µM; concentration at 338 hr (po, 1000 mg, Patient 041, 1000 mg weekly oral dose, Time 338 hr, read-out: Concentration (plasma level)): 411 µM; concentration at 339 hr (po, 1000 mg, Patient 041, 1000 mg weekly oral dose, Time 339 hr, read-out: Concentration (plasma level)): 485 µM; concentration at 340 hr (po, 1000 mg, Patient 041, 1000 mg weekly oral dose, Time 340 hr, read-out: Concentration (plasma level)): 478 µM; concentration at 360 hr (po, 1000 mg, Patient 041, 1000 mg weekly oral dose, Time 360 hr (Day 16), read-out: Concentration (plasma level)): 508 µM; concentration at 504 hr (po, 1000 mg, Patient 041, 1000 mg weekly oral dose, Time 504 hr (Day 22), read-out: Concentration (plasma level)): 558 µM; concentration at 506 hr (po, 1000 mg, Patient 041, 1000 mg weekly oral dose, Time 506 hr, read-out: Concentration (plasma level)): 674 µM; concentration at 507 hr (po, 1000 mg, Patient 041, 1000 mg weekly oral dose, Time 507 hr, read-out: Concentration (plasma level)): 748 µM; concentration at 508 hr (po, 1000 mg, Patient 041, 1000 mg weekly oral dose, Time 508 hr, read-out: Concentration (plasma level)): 676 µM

Source: patent publication US20130029928A1 (priority 2010, published 2013)
